The source of these data is US9907760B2 (LIBRAGEN, priority 2010, dated 2018).

This test has as its system normal human fibroblasts. As to the kind of experiment: Hyaluronic acid production by normal human fibroblasts treated with supernatant of treated keratinocytes (HA-ELISA). The class given is cell-based. The following applies: supernatant on fibroblasts 48 hrs; for % stimulation of hyaluronic acid synthesis: vs Control. How it is done:
Normal human dermal fibroblasts were cultured to confluence. Cells were treated for 48 hours with supernatants of normal human keratinocytes previously grown in the presence of the test products. The fibroblast supernatants, containing hyaluronic acid, were collected and assayed immediately. Hyaluronic acid was quantified with an ELISA microtiter plate. Protein content was determined for each well of the microtiter plate.
Primocultures of normal human keratinocytes (NHK) were obtained from cells isolated from skin specimens from plastic surgery.
NHK were seeded at a density of 130,000 cells/well in specific KSFM culture medium (Gibco®, Invitrogen) in a 24-well plate. The plate was placed in a humid incubator (37° C., 5% CO2) for 24 hours.
Primocultures of normal human fibroblasts (NHF) were obtained from cells isolated from skin specimens from plastic surgery.
NHF were seeded at a density of 90,000 cells/well in E-199 culture medium supplemented with 0.5% FCS (Gibco® Invitrogen) in a 24-well plate. The plate was placed in a humid incubator (37° C., 5% CO2) for 24 hours.
The two cell types—NHK and NHF—were plated 48 hours apart.
The different products at the respective concentrations (diluted in KSFM medium, 600 μl) were contacted with NHK cells for 48 hours. Untreated cells were used as the control condition. Two plates were used to separately test NAG, and NAG+vitamin A propionate, on the one hand, and NAG6P, and NAG6P+vitamin A propionate, on the other hand.
Each treatment condition was evaluated on three wells of NHK cells.
After 48 hours, a fraction of NHK cell supernatant (300 μl/well) was removed and transferred well for well into NHF cell supernatants (300 μl E-199/well−fresh medium without FCS).
This gave a final volume of 600 μl/well (50:50 ratio of KSFM/E-199 medium) which remained on the NHF cells for 48 hours.
After 48 hours of treatment, the NHF cell supernatant was collected and centrifuged.
Hyaluronic acid was assayed in the cell supernatants as described in example 1.
The assay was performed in duplicate for each well.
Optical densities (OD) measured on each sample were plotted on a graph (specific standard curve in the kit). The hyaluronic acid concentration was expressed in ng/ml.
The amount of hyaluronic acid released by the cells was determined for each well and for each treatment condition, relative to the cell content expressed as μg of protein. Thus, the final result was expressed as ng/ml of hyaluronic acid per μg of protein.
A mean value was calculated for wells treated with the same concentration of test product. This mean was compared with the mean of the control wells (Student t test−comparison of means−significant difference at 95% if p<0.05* and at 99% if p<0.01**).
The percent stimulation induced by the test products was determined by comparing the mean values of the control and treatment conditions: % Stimulation=(Treated−Control)/Control

With `CC(=O)N[C@H]1C(O)O[C@H](COP(=O)(O)O)[C@@H](O)[C@@H]1O` (stereo partly drawn) [NAG6P, N-acetylglucosamine-6-phosphate], for the setting “5 mM on keratinocytes 48 hrs”, the “Hyaluronic acid” value was determined as 3524.1 ± 198.6 ng/mL, the “Hyaluronic acid (ng/ml/μg prot.)” value is recorded as 401.7 ± 38.3 ng/ml/μg prot and the “% stimulation of hyaluronic acid synthesis” value is 7%. For the setting “10 mM on keratinocytes 48 hrs”, the “Hyaluronic acid” value turned out to be 3507.6 ± 213.3 ng/mL, the “Hyaluronic acid (ng/ml/μg prot.)” value is 382.9 ± 20.5 ng/ml/μg prot and the “% stimulation of hyaluronic acid synthesis” value stood at 2%.
